The values below come from paper PMC6009965, “α-Glucosidase inhibition by flavonoids: an in vitro and in silico structure–activity relationship study” (Journal of Enzyme Inhibition and Medicinal Chemistry, 2017).

Like-named read-outs stand apart in the source and are kept apart here. Some results are limits rather than exact numbers.

One assay concerns the target T1, yeast α-glucosidase (Saccharomyces cerevisiae, UniProt P53341).
T1 construct: purchased Sigma-Aldrich Co. LLC (St. Louis, MO)
The experiment in a line: Inhibitory kinetic analysis (Michaelis–Menten, Lineweaver–Burk plots). Particulars: for Type of inhibition: pNPG 300, 600 and 1200 μM. In kind it is biochemical. The protocol:
Briefly, the enzyme (0.05 U/mL), dissolved in 100 mM phosphate buffer (pH 6.8), was pre-incubated at 37 °C with the above mentioned flavonoids in a 96-well plate, for 5 min. In sequence, pNPG was added (300, 600 and 1200 μM) and incubated in the reaction mixture at 37 °C for 30 min.
The study of the inhibition type (competitive, uncompetitive, non-competitive or mixed) of the tested flavonoids was performed using the nonlinear regression Michaelis–Menten enzyme kinetics and the corresponding Lineweaver–Burk double reciprocal plots for each concentration of the inhibitor and substrate. The Ki values were calculated with GraphPad Software 6.0 by plotting the reciprocal of maximum velocity (1/V max) (y axis) against the flavonoid concentrations (x axis) (Table 2)[38–40].
The type of inhibition parameters were all calculated with GraphPad Software 6.0. The obtained results represent at least three independent experiments.

In the next assay the test system is α-glucosidase. The conditions noted are these: cited from earlier work; for Activity against α-glucosidase catalytic activity: ref Gao et al. 27.
In assay [1] the target is T2, α-glucosidase from Saccharomyces cerevisiae (Saccharomyces cerevisiae, UniProt P53341).
T2 construct: purchased Sigma-Aldrich Co. LLC (St. Louis, MO)
The experiment in a line: biochemical. On the procedure:
Compounds A1, A2, A3, A4, A5, A6, B1, B2, B3, B4, C1, C2, C3, C4, C5, C6, C8, C9, D1 (chrysin), D2 (galangin) and D5 were obtained from Indofine Chemical Company, Inc. (Hillsborough, NJ). The flavonoids C7, C10, C11, C12, C13, D10, D11, D12, D13, D14 and D17 were synthesised as previously described. For the enzymatic assays, flavonoids were dissolved in DMSO (the final concentration of DMSO in the reactional mixture was 4.76%).
The α-glucosidase activity was measured using a method of Tadera et al.[31] slightly modified. The assay was carried out by monitoring the α-glucosidase-mediated transformation of the substrate pNPG into α-D-glucose and p-nitrophenol, at 405 nm. Briefly, in a 96-well plate, the enzyme (0.05 U/mL), dissolved in 100 mM phosphate buffer (pH 6.8), was pre-incubated at 37 °C for 5 min with the flavonoids (0–200 μM). In sequence, pNPG was added (600 μM) and incubated in the reaction mixture at 37 °C for 30 min. The enzymatic reaction was monitored spectrophotometrically, in a microplate reader (Synergy HT, BIO-TEK), by measuring the absorbance at 405 nm. The obtained values correspond to the slope measured between 5 and 20 min. […] The obtained results represent at least three independent experiments.

Setting [2] is: read-out: Inhibitory activity at the highest tested concentration.
Where [3] appears, read: enzyme 0.05 U/mL, pNPG 600 μM, pH 6.8, 37 °C, mean ± SEM, read-out: IC50.
The mark [4] stands for this setting: mean ± SEM, from 1/Vmax vs flavonoid concentration, read-out: Ki.

T2 sequence (P53341 whole entry): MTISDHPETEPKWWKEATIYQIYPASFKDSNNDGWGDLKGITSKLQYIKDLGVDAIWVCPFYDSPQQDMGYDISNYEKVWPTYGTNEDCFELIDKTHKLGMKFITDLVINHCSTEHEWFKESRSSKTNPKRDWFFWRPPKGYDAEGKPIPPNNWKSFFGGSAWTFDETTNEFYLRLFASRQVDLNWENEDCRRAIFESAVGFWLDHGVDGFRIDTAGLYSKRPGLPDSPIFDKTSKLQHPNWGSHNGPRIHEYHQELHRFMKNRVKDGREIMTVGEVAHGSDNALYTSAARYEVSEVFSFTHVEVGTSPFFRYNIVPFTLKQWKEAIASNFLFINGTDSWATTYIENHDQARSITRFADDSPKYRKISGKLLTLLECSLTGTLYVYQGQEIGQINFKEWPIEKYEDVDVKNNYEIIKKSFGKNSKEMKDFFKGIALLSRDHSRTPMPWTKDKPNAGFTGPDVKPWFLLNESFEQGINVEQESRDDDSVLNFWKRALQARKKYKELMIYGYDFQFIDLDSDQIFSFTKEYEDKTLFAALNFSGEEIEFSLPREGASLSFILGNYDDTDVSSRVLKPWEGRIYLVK
T1 sequence (P53341 whole entry): as above

Regarding `C[C@H]1O[C@H](O[C@H]2[C@H](O)[C@@H](O)[C@@H](O[C@H]3[C@H](O)[C@@H](O)C(O)O[C@@H]3CO)O[C@@H]2CO)[C@H](O)[C@@H](O)[C@@H]1N[C@H]1C=C(CO)[C@@H](O)[C@H](O)[C@H]1O` (stereo partly drawn) [Acarbose, reference compound], the Type of inhibition entry on yeast α-glucosidase is reported as “Competitive”; in the assay with α-glucosidase (ref Kim et al. 68, Lopez et al. 69) it was “competitive”; in the assay with α-glucosidase (ref Son et al. 70), “mixed type of inhibition”.

On to `O=c1cc(-c2ccccc2)oc2ccccc12` [Compound A1, Flavone], for which, in assay [1], the “Inhibitory activity against α-glucosidase (in words)” value (“Inhibitory activity” for short) is on record as “not able to inhibit α-glucosidase”. In assay [1] (setting [2]), the inhibition at 200 µM was less than 20%.

As to `O=c1cc(-c2cccc(O)c2)oc2ccccc12` [Compound A2], in assay [1], the “Inhibitory activity” value was “low or no inhibitory activity”. In addition, the inhibition at 200 µM in assay [1] (setting [2]) is less than 20%.

In the case of `O=c1cc(-c2ccc(O)cc2)oc2ccccc12` [Compound A3], the “Inhibitory activity” value in assay [1] is listed as “low or no inhibitory activity”. Also, the inhibition at 200 µM in assay [1] (setting [2]) was less than 20%.

For the compound `O=c1cc(-c2ccc(O)c(O)c2)oc2ccccc12` [Compound A4], the “Inhibitory activity” value in assay [1] is recorded as “low or no inhibitory activity”. In addition, the inhibition at 200 µM in assay [1] (setting [2]) turned out to be 32 ± 4%.

In general, IC50 refers to the concentration that inhibits the measured activity by half. In general, Ki refers to a measure of affinity in units of concentration, obtained from inhibition or displacement. Consider `O=c1c(O)c(-c2ccc(O)c(O)c2)oc2ccccc12` [Compound A5], for which, in assay [1] (setting [3]), the IC50 was 54 ± 3 µM. Moreover, on yeast α-glucosidase, the Ki was 41 ± 7 µM and the Type of inhibition result is listed as “Mixed”.

For the compound `COc1ccc(-c2oc3ccccc3c(=O)c2O)cc1OC` [Compound A6], in assay [1] (setting [3]), the IC50 was more than 100 µM. Also, in assay [1] (setting [2]), the inhibition at 100 µM is less than 20%.

As to `O=c1cc(-c2ccccc2)oc2cccc(O)c12` [Compound B1], in assay [1] (setting [2]), the inhibition at 200 µM is less than 20%. Also, the “Activity against α-glucosidase catalytic activity” value in the assay with α-glucosidase was “no activity”.

For `O=c1cc(-c2cccc(O)c2)oc2cccc(O)c12` [Compound B2], in assay [1] (setting [2]), the inhibition at 200 µM stood at 31 ± 4%.

As to `O=c1cc(-c2ccc(O)cc2)oc2cccc(O)c12` [Compound B3], the IC50 in assay [1] (setting [3]) turned out to be 66 ± 2 µM. Moreover, at yeast α-glucosidase, the affinity corresponds to a Ki of 127 ± 9 µM and the Type of inhibition entry was “Mixed”.

As for `O=c1cc(-c2ccc(O)c(O)c2)oc2cccc(O)c12` [Compound B4], in assay [1], the IC50 was 66 ± 7 µM.

With `O=c1cc(-c2ccccc2)oc2cc(O)ccc12` [Compound C1], the IC50 in assay [1] was more than 200 µM. Moreover, the inhibition at 200 µM in assay [1] (setting [2]) is less than 20%. Moreover, the “Activity against α-glucosidase catalytic activity” value with α-glucosidase is on record as “no activity”.

Turning to `O=c1cc(-c2cccc(O)c2)oc2cc(O)ccc12` [Compound C2], the IC50 in assay [1] (setting [3]) is 53 ± 4 µM.

In the case of `O=c1cc(-c2ccc(O)cc2)oc2cc(O)ccc12` [Compound C3], in assay [1] (setting [3]), the IC50 is approximately 200 µM.

For the compound `O=c1c(O)c(-c2cccc(O)c2)oc2cc(O)ccc12` [Compound C4], in assay [1] (setting [3]), the IC50 came to 42 ± 4 µM.

Turning to `O=c1c(O)c(-c2ccc(O)cc2)oc2cc(O)ccc12` [Compound C5], the IC50 in assay [1] (setting [3]) was 96 ± 10 µM.

In the case of `O=c1cc(-c2ccc(O)c(O)c2)oc2cc(O)ccc12` [Compound C6], in assay [1] (setting [3]), the IC50 was 95 ± 7 µM.

Consider `O=c1c(O)c(-c2ccc(O)c(O)c2)oc2c(O)c(O)ccc12` [Compound C7], for which the IC50 in assay [1] (setting [3]) came out at 7.6 ± 0.4 µM. Moreover, on yeast α-glucosidase, the Ki came to 6.5 ± 0.2 µM and the Type of inhibition result is recorded as “Competitive”.

Take `COc1cccc(-c2oc3cc(OC)ccc3c(=O)c2O)c1` [Compound C8]: the inhibition at 100 µM in assay [1] (setting [2]) was found to be 22 ± 2%.

On to `COc1ccc(-c2oc3cc(OC)ccc3c(=O)c2O)cc1` [Compound C9], for which the inhibition at 200 µM in assay [1] (setting [2]) was less than 20%.

In the case of `COc1ccc2c(=O)c(O)c(-c3ccc(O)c(O)c3)oc2c1OC` [Compound C10], the IC50 in assay [1] came to 86 ± 6 µM.

In the case of `COc1ccc(-c2oc3c(O)c(O)ccc3c(=O)c2O)cc1OC` [Compound C11], the inhibition at 200 µM in assay [1] (setting [2]) stood at 31 ± 3%.

For the compound `COc1ccc2c(=O)c(O)c(-c3ccc(OCc4ccccc4)c(OCc4ccccc4)c3)oc2c1OC` [Compound C12], in assay [1] (setting [2]), the inhibition at 200 µM is less than 20%.

As to `COc1ccc(-c2oc3c(OCc4ccccc4)c(OCc4ccccc4)ccc3c(=O)c2O)cc1OC` [Compound C13], the inhibition at 200 µM in assay [1] (setting [2]) was found to be 32 ± 3%.

As for `O=c1cc(-c2ccccc2)oc2cc(O)cc(O)c12` [Compound D1, Chrysin], the “Inhibitory activity” value in assay [1] is given as “no inhibitory effect”. In addition, in assay [1] (setting [2]), the inhibition at 50 µM was less than 20%.

Regarding `O=c1c(O)c(-c2ccccc2)oc2cc(O)cc(O)c12` [Compound D2, Galangin], the inhibition at 200 µM in assay [1] (setting [2]) worked out at 21 ± 3%.

For the compound `O=c1cc(-c2ccccc2)oc2cc(O)c(O)c(O)c12` [Compound D3, Baicalein], the IC50 in assay [1] (setting [3]) worked out at 44 ± 3 µM.

In the case of `O=c1cc(-c2cccc(O)c2)oc2cc(O)cc(O)c12` [Compound D4], in assay [1], the IC50 came to 89 ± 3 µM.

On to `O=c1cc(-c2ccc(O)cc2)oc2cc(O)cc(O)c12` [Compound D5, Apigenin], for which the IC50 in assay [1] was found to be 82 ± 6 µM.

Consider `O=c1cc(-c2ccc(O)c(O)c2)oc2cc(O)cc(O)c12` [Compound D7, Luteolin], for which the IC50 in assay [1] (setting [3]) turned out to be 46 ± 6 µM.

Turning to `O=c1c(O)c(-c2ccc(O)c(O)c2)oc2cc(O)cc(O)c12` [Compound D8, Quercetin], the results for the Type of inhibition result at yeast α-glucosidase and with α-glucosidase were “Competitive” and “mixed type inhibitor”, respectively.

Take `O=c1c(O)c(-c2ccc(O)cc2O)oc2cc(O)cc(O)c12` [Compound D9, Morin]: the IC50 in assay [1] was found to be 32 ± 2 µM.

Turning to `O=c1c(Cl)c(-c2ccc(O)c(O)c2)oc2cc(O)cc(O)c12` [Compound D10], the IC50 in assay [1] was 21 ± 2 µM. Further, the Ki at yeast α-glucosidase (setting [4]) was 51 ± 6 µM. In addition, the Type of inhibition result on yeast α-glucosidase is on record as “Non-competitive”.

Regarding `O=c1cc(-c2ccc(O)c(O)c2)oc2cc(O)c(Cl)c(O)c12` [Compound D11], in assay [1] (setting [3]), the IC50 is approximately 200 µM.

As to `O=c1cc(-c2ccc(O)c(O)c2)oc2c(Cl)c(O)cc(O)c12` [Compound D12], the IC50 in assay [1] is 55 ± 2 µM.

Take `O=c1c(Cl)c(-c2ccc(O)c(O)c2)oc2c(Cl)c(O)cc(O)c12` [Compound D13]: the IC50 in assay [1] came to 43 ± 3 µM.

Consider `O=c1cc(-c2ccc(O)c(O)c2)oc2c(Cl)c(O)c(Cl)c(O)c12` [Compound D14], for which the IC50 in assay [1] is 34 ± 3 µM.

Turning to `COc1ccc(-c2cc(=O)c3c(O)cc(O)cc3o2)cc1` [Compound D16, Acacetin], the IC50 in assay [1] (setting [3]) was approximately 200 µM.

For `COc1ccc(-c2cc(=O)c3c(O)cc(O)cc3o2)cc1OC` [Compound D17], the inhibition at 200 µM in assay [1] (setting [2]) is less than 20%.

In the case of `C[C@@H]1O[C@@H](OC[C@H]2O[C@@H](Oc3c(-c4ccc(O)c(O)c4)oc4cc(O)cc(O)c4c3=O)[C@H](O)[C@@H](O)[C@@H]2O)[C@H](O)[C@H](O)[C@H]1O` [Compound D18, Rutin], the “Inhibitory activity” value in assay [1] is “low activity”. In assay [1] (setting [2]), the inhibition at 200 µM was less than 20%.

With `O=C1C[C@@H](c2ccc(O)cc2)Oc2cc(O)cc(O)c21` [Compound E1, Naringenin], in assay [1] (setting [2]), the inhibition at 200 µM was 45 ± 3%.

With `O=C1C[C@@H](c2ccc(O)c(O)c2)Oc2cc(O)cc(O)c21` [Compound E2, Eriodictyol], in assay [1] (setting [2]), the inhibition at 200 µM is 35 ± 4%.

For the compound `O=C1c2c(O)cc(O)cc2OC(c2ccc(O)c(O)c2)C1O` (stereo not drawn) [Compound E3, Taxifolin], the IC50 in assay [1] is approximately 200 µM. Also, the Ki at yeast α-glucosidase (setting [4]) amounted to 347 ± 15 µM. The Type of inhibition result on yeast α-glucosidase was “Non-competitive”.
